Reference: patent publication US20100061928A1, “LABELLED ANALOGUES OF HALOBENZAMIDES AS RADIOPHARMACEUTICALS” (Institut National De La Sante et De La Recherche Medicale …, priority 2006, published 2010)
Where a name gives a salt, the structure may show the parent alone.

Columns and labels:
[1] = Elimination of the molecules: cumulative urinary and faecal excretion 0-72 hours; type: in vivo, mouse; conditions: for Faecal elimination 0-72 hours (Faeces) / Urinary and faecal elimination 0-72 hours (Total) / Urinary elimination 0-72 hours (Urine): cumulative excretion 0-72 hours; for Faecal elimination 0-72 hours (Faeces) / Urinary elimination 0-72 hours (Urine): mice in metabolic cages; for Urinary and faecal elimination 0-72 hours (Total): urine + faeces
tumour = assay: Dosimetry with regard to the tumour (MIRD programme, extrapolated to ^131I); conditions: for Effective period: extrapolated to 131I labelling; for Biological period: from biodistribution data
[2] = system: grafted B16 F0 murine melanoma tumour; assay: Biodistribution of the ^125I-labelled molecules in the melanoma-bearing mouse (autoradiography of whole-body sections); conditions: ^125I-labelled compound

## CCN(CC)CCNC(=O)c1ccc2cc(I)ccc2c1 [compound 3, N-(2-diethylaminoethyl)-6-iodo-2-naphthamide hydrochloride]
[1]
  Faecal elimination 0-72 hours (Faeces): 26.7%
  Urinary and faecal elimination 0-72 hours (Total): 70.6%
  Urinary elimination 0-72 hours (Urine): 43.7%
tumour
  Effective period: 21.4 h
  Biological period: 24.0 hours
[2]; 1 H after i.v. administration
  Concentration of radioactivity, B 16 (tumour), Mean: 12.99 % ID/g
  Concentration of radioactivity, Ic (intestinal contents), Mean: 7.82 % ID/g
  Concentration of radioactivity, Sc (stomach contents), Mean: 27.82 % ID/g
  Concentration of radioactivity, blood (measured in the heart cavity), Mean: 2.97 % ID/g
  Concentration of radioactivity, brain, Mean: 4.37 % ID/g
  Concentration of radioactivity, kidney, Mean: 13.30 % ID/g
  Concentration of radioactivity, liver, Mean: 9.46 % ID/g
  Concentration of radioactivity, lungs, Mean: 11.82 % ID/g
  Concentration of radioactivity, muscle (skeletal muscle), Mean: 1.92 % ID/g
  Concentration of radioactivity, pancreas, Mean: 10.18 % ID/g
  Concentration of radioactivity, spleen, Mean: 9.70 % ID/g
  Concentration of radioactivity, uvea (pigmented tissues of the eye), Mean: 13.21 % ID/g
[2]; 3 H after i.v. administration
  Concentration of radioactivity, B 16 (tumour), Mean: 11.38 % ID/g
  Concentration of radioactivity, Ic (intestinal contents), Mean: 25.85 % ID/g
  Concentration of radioactivity, Sc (stomach contents), Mean: 24.69 % ID/g
  Concentration of radioactivity, blood (measured in the heart cavity), Mean: 1.77 % ID/g
  Concentration of radioactivity, brain, Mean: 0.78 % ID/g
  Concentration of radioactivity, kidney, Mean: 5.65 % ID/g
  Concentration of radioactivity, liver, Mean: 4.75 % ID/g
  Concentration of radioactivity, lungs, Mean: 4.43 % ID/g
  Concentration of radioactivity, muscle (skeletal muscle), Mean: 0.83 % ID/g
  Concentration of radioactivity, pancreas, Mean: 8.19 % ID/g
  Concentration of radioactivity, spleen, Mean: 2.59 % ID/g
  Concentration of radioactivity, uvea (pigmented tissues of the eye), Mean: 13.90 % ID/g
[2]; 6 H after i.v. administration
  Concentration of radioactivity, B 16 (tumour), Mean: 8.95 % ID/g
  Concentration of radioactivity, Ic (intestinal contents), Mean: 18.72 % ID/g
  Concentration of radioactivity, Sc (stomach contents), Mean: 10.79 % ID/g
  Concentration of radioactivity, blood (measured in the heart cavity), Mean: 1.74 % ID/g
  Concentration of radioactivity, brain, Mean: 0.25 % ID/g
  Concentration of radioactivity, kidney, Mean: 3.07 % ID/g
  Concentration of radioactivity, liver, Mean: 2.73 % ID/g
  Concentration of radioactivity, lungs, Mean: 2.12 % ID/g
  Concentration of radioactivity, muscle (skeletal muscle), Mean: 0.38 % ID/g
  Concentration of radioactivity, spleen, Mean: 8.05 % ID/g
  Concentration of radioactivity, uvea (pigmented tissues of the eye), Mean: 12.76 % ID/g
[2]; 24 H after i.v. administration
  Concentration of radioactivity, B 16 (tumour), Mean: 6.97 % ID/g
  Concentration of radioactivity, Ic (intestinal contents), Mean: 3.03 % ID/g
  Concentration of radioactivity, Sc (stomach contents), Mean: 3.10 % ID/g
  Concentration of radioactivity, uvea (pigmented tissues of the eye), Mean: 12.28 % ID/g
[2]; 72 H after i.v. administration
  Concentration of radioactivity, B 16 (tumour), Mean: 1.52 % ID/g
  Concentration of radioactivity, uvea (pigmented tissues of the eye), Mean: 7.84 % ID/g

## CCN(CC)CCNC(=O)c1ccc(I)nc1 [compound 7, N-(2-diethylaminoethyl)-6-iodonicotinamide dihydrochloride]
[1]
  Faecal elimination 0-72 hours (Faeces): 5.3%
  Urinary and faecal elimination 0-72 hours (Total): 72.6%
  Urinary elimination 0-72 hours (Urine): 67.3%
[1]; urinary versus faecal, 0-72 hours
  elimination route (in words): predominantly in the urine
tumour
  Effective period: 17.3 h
  Biological period: 19.0 hours
[2]; 1 H after i.v. administration
  Concentration of radioactivity, B 16 (tumour), Mean: 15.49 % ID/g
  Concentration of radioactivity, GB (gall bladder), Mean: 8.68 % ID/g
  Concentration of radioactivity, Ic (intestinal contents), Mean: 13.44 % ID/g
  Concentration of radioactivity, SV (seminal vesicles), Mean: 6.79 % ID/g
  Concentration of radioactivity, Sc (stomach contents), Mean: 34.80 % ID/g
  Concentration of radioactivity, blood (measured in the heart cavity), Mean: 6.67 % ID/g
  Concentration of radioactivity, brain, Mean: 0.64 % ID/g
  Concentration of radioactivity, kidney, Mean: 6.08 % ID/g
  Concentration of radioactivity, liver, Mean: 5.14 % ID/g
  Concentration of radioactivity, lungs, Mean: 7.59 % ID/g
  Concentration of radioactivity, muscle (skeletal muscle), Mean: 1.48 % ID/g
  Concentration of radioactivity, pancreas, Mean: 3.94 % ID/g
  Concentration of radioactivity, spleen, Mean: 5.44 % ID/g
  Concentration of radioactivity, testicles, Mean: 4.11 % ID/g
  Concentration of radioactivity, thyroid, Mean: 25.29 % ID/g
  Concentration of radioactivity, uvea (pigmented tissues of the eye), Mean: 16.66 % ID/g
[2]; 3 H after i.v. administration
  Concentration of radioactivity, B 16 (tumour), Mean: 9.27 % ID/g
  Concentration of radioactivity, GB (gall bladder), Mean: 6.78 % ID/g
  Concentration of radioactivity, Ic (intestinal contents), Mean: 4.94 % ID/g
  Concentration of radioactivity, SV (seminal vesicles), Mean: 3.78 % ID/g
  Concentration of radioactivity, Sc (stomach contents), Mean: 42.71 % ID/g
  Concentration of radioactivity, blood (measured in the heart cavity), Mean: 4.22 % ID/g
  Concentration of radioactivity, brain, Mean: 0.22 % ID/g
  Concentration of radioactivity, kidney, Mean: 3.26 % ID/g
  Concentration of radioactivity, liver, Mean: 3.01 % ID/g
  Concentration of radioactivity, lungs, Mean: 3.96 % ID/g
  Concentration of radioactivity, pancreas, Mean: 2.53 % ID/g
  Concentration of radioactivity, spleen, Mean: 2.68 % ID/g
  Concentration of radioactivity, testicles, Mean: 2.43 % ID/g
  Concentration of radioactivity, thyroid, Mean: 59.09 % ID/g
  Concentration of radioactivity, uvea (pigmented tissues of the eye), Mean: 12.69 % ID/g
[2]; 6 H after i.v. administration
  Concentration of radioactivity, B 16 (tumour), Mean: 6.97 % ID/g
  Concentration of radioactivity, GB (gall bladder), Mean: 4.90 % ID/g
  Concentration of radioactivity, Ic (intestinal contents), Mean: 2.98 % ID/g
  Concentration of radioactivity, SV (seminal vesicles), Mean: 3.55 % ID/g
  Concentration of radioactivity, Sc (stomach contents), Mean: 50.21 % ID/g
  Concentration of radioactivity, blood (measured in the heart cavity), Mean: 3.71 % ID/g
  Concentration of radioactivity, brain, Mean: 0.12 % ID/g
  Concentration of radioactivity, kidney, Mean: 3.05 % ID/g
  Concentration of radioactivity, liver, Mean: 2.09 % ID/g
  Concentration of radioactivity, lungs, Mean: 3.21 % ID/g
  Concentration of radioactivity, muscle (skeletal muscle), Mean: 0.53 % ID/g
  Concentration of radioactivity, pancreas, Mean: 2.27 % ID/g
  Concentration of radioactivity, spleen, Mean: 2.35 % ID/g
  Concentration of radioactivity, testicles, Mean: 2.01 % ID/g
  Concentration of radioactivity, thyroid, Mean: 7.92 % ID/g
  Concentration of radioactivity, uvea (pigmented tissues of the eye), Mean: 11.50 % ID/g
[2]; 24 H after i.v. administration
  Concentration of radioactivity, B 16 (tumour), Mean: 2.69 % ID/g
  Concentration of radioactivity, Sc (stomach contents), Mean: 1.46 % ID/g
  Concentration of radioactivity, thyroid, Mean: 111.30 % ID/g
  Concentration of radioactivity, uvea (pigmented tissues of the eye), Mean: 6.07 % ID/g
[2]; 72 H after i.v. administration
  Concentration of radioactivity, B 16 (tumour), Mean: 0.87 % ID/g
  Concentration of radioactivity, kidney, Mean: 1.09 % ID/g
  Concentration of radioactivity, thyroid, Mean: 178.80 % ID/g
  Concentration of radioactivity, uvea (pigmented tissues of the eye), Mean: 2.54 % ID/g
